Where a name gives a salt, the structure may show the parent alone.
Molecular target: T1, Oatp1b2 (Mus musculus, UniProt Q9JJL3)
T1 sequence (Q9JJL3 1-689): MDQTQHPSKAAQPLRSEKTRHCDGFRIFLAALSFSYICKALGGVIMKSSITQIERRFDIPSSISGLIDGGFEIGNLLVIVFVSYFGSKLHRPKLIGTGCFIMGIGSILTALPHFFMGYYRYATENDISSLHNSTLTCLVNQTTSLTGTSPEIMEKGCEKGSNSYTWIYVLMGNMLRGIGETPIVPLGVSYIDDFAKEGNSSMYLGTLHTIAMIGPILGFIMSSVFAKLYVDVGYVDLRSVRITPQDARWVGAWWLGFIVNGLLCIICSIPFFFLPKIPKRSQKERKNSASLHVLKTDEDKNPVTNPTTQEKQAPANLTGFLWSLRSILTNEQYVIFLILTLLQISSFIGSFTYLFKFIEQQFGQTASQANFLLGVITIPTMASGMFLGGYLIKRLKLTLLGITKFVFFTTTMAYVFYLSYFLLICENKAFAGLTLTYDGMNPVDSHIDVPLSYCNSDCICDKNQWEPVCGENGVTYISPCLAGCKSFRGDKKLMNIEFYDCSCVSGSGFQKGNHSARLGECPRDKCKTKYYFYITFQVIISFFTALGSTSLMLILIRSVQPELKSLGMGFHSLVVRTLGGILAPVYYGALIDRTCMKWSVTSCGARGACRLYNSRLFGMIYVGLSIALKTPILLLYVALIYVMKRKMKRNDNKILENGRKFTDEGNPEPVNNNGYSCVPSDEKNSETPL
Experiment: Untargeted metabolomics of plasma from untreated wild-type and Oatp1b2(−/−) mice
Conditions: for Fold of Change KO/WT: plasma of untreated Oatp1b2-deficient (KO) vs wild-type (WT) mice, semi-quantitative, positive = higher in KO, n = 6 per group; for Mean value KO: plasma of untreated Oatp1b2-deficient mice; for Mean value KO / Mean value WT: raw area counts rescaled to median = 1; for Mean value WT: plasma of untreated wild-type mice
Method: For all experiments, age- and sex-matched mice (8–12 weeks old) were used. […] Mice with a deficiency of Oatp1b2 (Oatp1b2(−/−) mice), the single murine orthologue of OATP1B1 and OATP1B3 in humans, on a DBA/1LacJ background were kindly provided by Drs. Richard B. Kim (Western University, London, Ontario, Canada) and Jeffrey L. Stock (Pfizer, Groton, CT, USA).
Plasma samples from untreated wild-type mice and Oatp1b2(−/−) mice were analyzed for structurally named and unknown molecules using a non-targeted semi-quantitative liquid chromatography-tandem mass spectrometry (LC-MS/MS) and gas chromatography-mass spectrometry platforms (Metabolon, Durham, NC, USA). Compounds were identified by comparison with library entries of purified standards or recurrent unknown entities.

**Q.** With `CCCCCCCC/C=C\CCCCCCCC(=O)OC[C@@H](O)COP(=O)(O)OC1[C@H](O)[C@H](O)C(O)[C@H](O)[C@H]1O` (stereo partly drawn) [1-oleoyl-GPI (18:1)] as the molecule, how does the “Fold of Change KO/WT” value read?
**A.** 1.87

**Q.** What about the “Mean value KO” value of the same molecule?
**A.** 1.36

**Q.** What about the “Mean value WT” value of the same molecule?
**A.** .729

**Q.** For `CCCCCC/C=C\CCCCCCCC(=O)O[C@H](CO)COP(=O)([O-])OCC[N+](C)(C)C` [2-palmitoleoyl-GPC (16:1)], which “Fold of Change KO/WT” value is on record?
**A.** 1.95

**Q.** What about the “Mean value KO” value of the same molecule?
**A.** 1.36

**Q.** And the “Mean value WT” value?
**A.** .696

**Q.** Which “Fold of Change KO/WT” value does the source give for `C[C@H](CCC(=O)NCCS(=O)(=O)O)[C@H]1CC[C@H]2[C@@H]3CC[C@@H]4C[C@H](O)CC[C@]4(C)[C@H]3C[C@H](O)[C@]12C` [taurodeoxycholate] here?
**A.** 3.45

**Q.** And the “Mean value KO” value?
**A.** 1.82

**Q.** What about the “Mean value WT” value of the same molecule?
**A.** .528

**Q.** How did the “Fold of Change KO/WT” value turn out when `O=C(O)C1CCCCN1` (stereo not drawn) [pipecolate] was run?
**A.** 1.12

**Q.** And the “Mean value KO” value?
**A.** 1.05

**Q.** And the “Mean value WT” value?
**A.** .938

**Q.** Which results are given for `CC/C=C\C/C=C\C/C=C\CCCCCCCC(=O)O[C@H](COC(=O)CCCCCCC/C=C\CCCCCC)COP(=O)([O-])OCC[N+](C)(C)C` [1-palmitoleoyl-2-linolenoyl-GPC (16:1/18:3)]?
**A.** Fold of Change KO/WT: 1.86; Mean value KO: 1.46; Mean value WT: .784

**Q.** What does the source list for `O=C(O)CCCCCCCCCCCCC(=O)O` [tetradecanedioate (C14-DC)]?
**A.** Fold of Change KO/WT: 4.27; Mean value KO: 1.96; Mean value WT: .459

**Q.** What does the source list for `CCCCCCCCCCCCCCCC(=O)OC[C@@H](O)COP(=O)([O-])OCC[N+](C)(C)C` [1-palmitoyl-GPC (16:0)]?
**A.** Fold of Change KO/WT: 1.29; Mean value KO: 1.12; Mean value WT: .868

**Q.** With `CCCCCCCCCCCCCCCC(=O)OC[C@H](COP(=O)([O-])OCC[N+](C)(C)C)OC(=O)CCCCCCCCCCCCCCC` [1,2-dipalmitoyl-GPC (16:0/16:0)] as the molecule, how does the “Fold of Change KO/WT” value read?
**A.** 1.31

**Q.** And the “Mean value KO” value?
**A.** 1.18

**Q.** And the “Mean value WT” value?
**A.** .901

**Q.** How did the “Fold of Change KO/WT” value turn out when `CC(=O)N[C@@H](Cc1cncn1C)C(=O)O` [N-acetyl-3-methylhistidine] was run?
**A.** 1.24

**Q.** And the “Mean value KO” value?
**A.** 1.09

**Q.** And the “Mean value WT” value?
**A.** .878

**Q.** Which results are given for `CC(=O)Nc1ccn([C@@H]2O[C@H](CO)[C@@H](O)[C@H]2O)c(=O)n1` [N4-acetylcytidine]?
**A.** Fold of Change KO/WT: 1.36; Mean value KO: 1.12; Mean value WT: .819

**Q.** `C[C@H](CCC(=O)NCCS(=O)(=O)O)[C@H]1CC[C@H]2[C@@H]3CC[C@@H]4C[C@H](OS(=O)(=O)O)CC[C@]4(C)[C@H]3C[C@H](O)[C@]12C` [taurodeoxycholic acid 3-sulfate] was tested. Which “Fold of Change KO/WT” value did it give?
**A.** 1.58

**Q.** What about the “Mean value KO” value of the same molecule?
**A.** 1.10

**Q.** And the “Mean value WT” value?
**A.** .694

**Q.** For `CCCCC/C=C\C/C=C\CCCCCCCC(N)=O` [linoleamide (18:2n6)], which “Fold of Change KO/WT” value is on record?
**A.** 1.36

**Q.** What about the “Mean value KO” value of the same molecule?
**A.** 1.29

**Q.** And the “Mean value WT” value?
**A.** .945

**Q.** “dihomo-linolenoylcarnitine (C20:3n3 or 6)” was tested. Which “Fold of Change KO/WT” value did it give?
**A.** 1.72

**Q.** What about the “Mean value KO” value of the same molecule?
**A.** 1.37

**Q.** And the “Mean value WT” value?
**A.** .795

**Q.** For `OC[C@@H](O)[C@@H](O)CO` [erythritol], which “Fold of Change KO/WT” value is on record?
**A.** 1.31

**Q.** And the “Mean value KO” value?
**A.** 1.22

**Q.** And the “Mean value WT” value?
**A.** .927

**Q.** What does the source list for `C[N+](C)(C)CC(CC(=O)[O-])OC(=O)CCCCCCCCCCCCCCCCC(=O)O` (stereo not drawn) [octadecanedioylcarnitine (C18-DC)]?
**A.** Fold of Change KO/WT: 1.16; Mean value KO: 1.00; Mean value WT: .860

**Q.** Which results are given for `CCCCC/C=C\C/C=C\CCCCCCCC(=O)OC[C@@H](O)COP(=O)(O)O` [1-linoleoyl-GPA (18:2)]?
**A.** Fold of Change KO/WT: 2.36; Mean value KO: 1.41; Mean value WT: .595

**Q.** What does the source list for `CCCCCCCC/C=C\CCCCCCCC(=O)O[C@H](COC(=O)CCCCCCCCCCCCCCC)COP(=O)([O-])OCC[N+](C)(C)C` [1-palmitoyl-2-oleoyl-GPC (16:0/18:1)]?
**A.** Fold of Change KO/WT: 1.30; Mean value KO: 1.08; Mean value WT: .834

**Q.** Which results are given for `CCCCC/C=C\C/C=C\C/C=C\C/C=C\CCCC(=O)O[C@H](CO/C=C\CCCCCCCCCCCCCCCC)COP(=O)(O)OCCN` [1-(1-enyl-stearoyl)-2-arachidonoyl-GPE (P-18:0/20:4)]?
**A.** Fold of Change KO/WT: 1.33; Mean value KO: 1.10; Mean value WT: .828

**Q.** With `CSC=CC(O)C(O)C(=O)O` (stereo not drawn) [2,3-dihydroxy-5-methylthio-4-pentenoate (DMTPA)] as the molecule, how does the “Fold of Change KO/WT” value read?
**A.** 1.34

**Q.** What about the “Mean value KO” value of the same molecule?
**A.** 1.23

**Q.** What about the “Mean value WT” value of the same molecule?
**A.** .915

**Q.** What does the source list for chenodeoxycholic acid sulfate (1)?
**A.** Fold of Change KO/WT: 6.41; Mean value KO: 1.02; Mean value WT: .160

**Q.** Which results are given for `C[N+](C)(C)CCCCC(=O)[O-]` [N,N,N-trimethyl-5-aminovalerate]?
**A.** Fold of Change KO/WT: 3.45; Mean value KO: 2.06; Mean value WT: .597

**Q.** `CCCCCCCCCCCCCCCCCC(=O)O[C@H](COC(=O)CCCCCCCCCCCCCCC)COP(=O)([O-])OCC[N+](C)(C)C` [1-palmitoyl-2-stearoyl-GPC (16:0/18:0)] was tested. Which “Fold of Change KO/WT” value did it give?
**A.** 1.14

**Q.** What about the “Mean value KO” value of the same molecule?
**A.** 1.09

**Q.** And the “Mean value WT” value?
**A.** .960

**Q.** With hexadecenedioate (C16:1-DC) as the molecule, how does the “Fold of Change KO/WT” value read?
**A.** 3.61

**Q.** And the “Mean value KO” value?
**A.** 1.62

**Q.** What about the “Mean value WT” value of the same molecule?
**A.** .448

**Q.** Which results are given for `O=C(O)CNC(=O)CCc1ccccc1` [phenylpropionylglycine]?
**A.** Fold of Change KO/WT: 2.41; Mean value KO: 1.58; Mean value WT: .656

**Q.** `CCCCCCCCCCCCCCCCC(N)=O` [margaramide (17:0)] was tested. Which “Fold of Change KO/WT” value did it give?
**A.** 1.45

**Q.** And the “Mean value KO” value?
**A.** 1.19

**Q.** And the “Mean value WT” value?
**A.** .826

**Q.** With dodecenedioate (C12:1-DC) as the molecule, how does the “Fold of Change KO/WT” value read?
**A.** 3.94

**Q.** What about the “Mean value KO” value of the same molecule?
**A.** 2.14

**Q.** What about the “Mean value WT” value of the same molecule?
**A.** .543

**Q.** Which “Fold of Change KO/WT” value does the source give for nonadecenamide (19:1) here?
**A.** 1.39

**Q.** What about the “Mean value KO” value of the same molecule?
**A.** 1.27

**Q.** And the “Mean value WT” value?
**A.** .917

**Q.** Which results are given for `C[C@H](CCC(=O)O)[C@H]1CC[C@H]2[C@@H]3[C@@H](O)[C@@H](O)[C@@H]4C[C@H](O)CC[C@]4(C)[C@H]3CC[C@]12C` [beta-muricholate]?
**A.** Fold of Change KO/WT: 15.2; Mean value KO: 2.84; Mean value WT: .187

**Q.** For `C=Cc1ccc(OS(=O)(=O)O)cc1` [4-vinylphenol sulfate], which “Fold of Change KO/WT” value is on record?
**A.** 1.55

**Q.** What about the “Mean value KO” value of the same molecule?
**A.** 1.32

**Q.** And the “Mean value WT” value?
**A.** .847

**Q.** What does the source list for `CCCCCCCC/C=C\CCCCCC/C=C\OC[C@@H](O)COP(=O)(O)OCCN` [1-(1-enyl-oleoyl)-GPE (P-18:1)]?
**A.** Fold of Change KO/WT: 2.16; Mean value KO: 1.45; Mean value WT: .672

**Q.** Which “Fold of Change KO/WT” value does the source give for `C[C@H](CCC(=O)O)[C@H]1CC[C@H]2[C@@H]3C[C@@H](O)[C@@H]4C[C@H](O)CC[C@]4(C)[C@H]3CC[C@]12C` [6-beta-hydroxylithocholate] here?
**A.** 13.1

**Q.** What about the “Mean value KO” value of the same molecule?
**A.** 1.16

**Q.** And the “Mean value WT” value?
**A.** .0890

**Q.** `COC1=C(O)[C@@H]([C@@H](O)CO)OC1=O` [2-O-methylascorbic acid] was tested. Which “Fold of Change KO/WT” value did it give?
**A.** 1.16

**Q.** What about the “Mean value KO” value of the same molecule?
**A.** 1.08

**Q.** What about the “Mean value WT” value of the same molecule?
**A.** .927

**Q.** `C[N+](C)(C)CCOP(=O)([O-])OC[C@H](O)CO` [glycerophosphorylcholine (GPC)] was tested. Which “Fold of Change KO/WT” value did it give?
**A.** 1.34

**Q.** What about the “Mean value KO” value of the same molecule?
**A.** 1.12

**Q.** What about the “Mean value WT” value of the same molecule?
**A.** .836

**Q.** `CCCCC/C=C\C/C=C\CCCCCCCC(=O)O[C@H](CC(=O)[O-])C[N+](C)(C)C` [linoleoylcarnitine (C18:2)] was tested. Which “Fold of Change KO/WT” value did it give?
**A.** 1.62

**Q.** What about the “Mean value KO” value of the same molecule?
**A.** 1.36

**Q.** What about the “Mean value WT” value of the same molecule?
**A.** .838

**Q.** How did the “Fold of Change KO/WT” value turn out when `O=C(O)[C@H]1O[C@@H](Oc2ccccc2)[C@H](O)[C@@H](O)[C@@H]1O` [phenol glucuronide] was run?
**A.** 1.87

**Q.** What about the “Mean value KO” value of the same molecule?
**A.** 1.28

**Q.** And the “Mean value WT” value?
**A.** .684
